Test results reported in ChEMBL document CHEMBL1137638, “TEM-158 (CMT-9), a new member of the CMT-type extended-spectrum beta-lactamases” (Antimicrob Agents Chemother, 2007).
≈ marks a conversion by molar mass, not a printed value.

Legend:
Escherichia coli [1] = test: Antibacterial activity against rifampin-resistant Escherichia coli C600 by microdilution method; assay type: functional
Escherichia coli [2] = test: Antibacterial activity against Escherichia coli BER1 producing beta-lactamase pI 5.2 and pI 5.4 by microdilution method; assay type: functional
Escherichia coli [3] = test: Antibacterial activity against Escherichia coli DH5alpha producing beta-lactamase TEM-1 by microdilution method; assay type: functional
Escherichia coli [4] = test: Antibacterial activity against Escherichia coli DH5alpha producing beta-lactamase TEM-158 by microdilution method; assay type: functional
Escherichia coli [5] = test: Antibacterial activity against Escherichia coli DH5alpha producing beta-lactamase TEM-35 by microdilution method; assay type: functional
Escherichia coli [6] = test: Antibacterial activity against Escherichia coli DH5alpha by microdilution method; assay type: functional
Escherichia coli [7] = test: Antibacterial activity against rifampin-resistant Escherichia coli C600 transconjugant producing beta-lactamase of pI 5.2 by microdilution method; assay type: functional
Escherichia coli [8] = test: Antibacterial activity against Escherichia coli DH5alpha producing beta-lactamase TEM-12 by microdilution method; assay type: functional
[9] = Inhibition of Escherichia coli CF0042 beta-lactamase TEM-35
[10] = Inhibition of Escherichia coli TO799 beta-lactamase TEM-125 after 10 mins
[11] = Inhibition of Escherichia coli DH5alpha beta-lactamase TEM-12
[12] = Inhibition of Escherichia coli DH5alpha CL1179 clone beta-lactamase TEM-152 after 10 mins
[13] = Inhibition of Escherichia coli DH10B beta-lactamase TEM-121 after 10 mins; set-up: species or system Escherichia coli str. K-12 substr. DH10B

| IC50 [10] [nM] | IC50 [12] [nM] | IC50 [13] [nM] | Compound | MIC (Escherichia coli [1]) [µg/mL] | MIC (Escherichia coli [2]) [µg/mL] | MIC (Escherichia coli [3]) [µg/mL] | MIC (Escherichia coli [4]) [µg/mL] | MIC (Escherichia coli [5]) [µg/mL] | MIC (Escherichia coli [6]) [µg/mL] | MIC (Escherichia coli [7]) [µg/mL] | MIC (Escherichia coli [8]) [µg/mL] | IC50 [9] [nM] | IC50 [11] [nM] |
| --- | --- | --- | --- | --- | --- | --- | --- | --- | --- | --- | --- | --- | --- |
|  |  |  | CO/N=C(\C(=O)N[C@@H]1C(=O)N2C(C(=O)[O-])=C(C[N+]3(C)CCCC3)CS[C@H]12)c1csc(N)n1 | < 0.06 | 4 (≈ 8.32 µM) | < 0.06 | 4 (≈ 8.32 µM) | < 0.06 | < 0.06 | 4 (≈ 8.32 µM) | 1 (≈ 2.08 µM) |  |  |
|  |  |  | CC1(C)S[C@@H]2[C@H](NC(=O)[C@H](N)c3ccc(O)cc3)C(=O)N2[C@H]1C(=O)O [AMOXICILLIN] | 4 (≈ 10.9 µM) | > 2050 | > 2050 | > 2050 | > 2050 | 4 (≈ 10.9 µM) | > 2050 | > 2050 |  |  |
|  |  |  | C[C@H]1[C@H](NC(=O)/C(=N\OC(C)(C)C(=O)O)c2csc(N)n2)C(=O)N1S(=O)(=O)O [AZTREONAM] |  | 1 (≈ 2.3 µM) |  | 1 (≈ 2.3 µM) |  |  | 1 (≈ 2.3 µM) | 4 (≈ 9.19 µM) |  |  |
|  |  |  | CO/N=C(\C(=O)N[C@@H]1C(=O)N2C(C(=O)O)=C(COC(C)=O)CS[C@H]12)c1csc(N)n1 [CEFOTAXIME] | 0.06 (≈ 0.132 µM) | 0.25 (≈ 0.549 µM) | 0.06 (≈ 0.132 µM) | 0.25 (≈ 0.549 µM) | 0.06 (≈ 0.132 µM) | 0.06 (≈ 0.132 µM) | 0.25 (≈ 0.549 µM) | 0.12 (≈ 0.263 µM) |  |  |
|  |  |  | CO[C@@]1(NC(=O)Cc2cccs2)C(=O)N2C(C(=O)O)=C(COC(N)=O)CS[C@@H]21 [CEFOXITIN] | 4 (≈ 9.36 µM) | 0.25 (≈ 0.585 µM) | 4 (≈ 9.36 µM) | 4 (≈ 9.36 µM) | 4 (≈ 9.36 µM) | 4 (≈ 9.36 µM) | 4 (≈ 9.36 µM) | 4 (≈ 9.36 µM) |  |  |
|  |  |  | CC(C)(O/N=C(\C(=O)N[C@@H]1C(=O)N2C(C(=O)[O-])=C(C[n+]3ccccc3)CS[C@H]12)c1csc(N)n1)C(=O)O [CEFTAZIDIME] | 0.12 (≈ 0.22 µM) | 16 (≈ 29.3 µM) | 0.12 (≈ 0.22 µM) | 32 (≈ 58.5 µM) | 0.25 (≈ 0.457 µM) | 0.12 (≈ 0.22 µM) | 16 (≈ 29.3 µM) | 32 (≈ 58.5 µM) |  |  |
|  |  |  | CO/N=C(\C(=O)N[C@@H]1C(=O)N2C(C(=O)O)=C(COC(N)=O)CS[C@H]12)c1ccco1 [CEFUROXIME] | 4 (≈ 9.43 µM) | 8 (≈ 18.9 µM) | 4 (≈ 9.43 µM) | 8 (≈ 18.9 µM) | 8 (≈ 18.9 µM) | 4 (≈ 9.43 µM) | 4 (≈ 9.43 µM) | 8 (≈ 18.9 µM) |  |  |
|  |  |  | CC(=O)OCC1=C(C(=O)O)N2C(=O)[C@@H](NC(=O)Cc3cccs3)[C@H]2SC1 [CEPHALOTHIN] | 4 (≈ 10.1 µM) | 32 (≈ 80.7 µM) | 4 (≈ 10.1 µM) | 32 (≈ 80.7 µM) | 16 (≈ 40.4 µM) | 4 (≈ 10.1 µM) | 16 (≈ 40.4 µM) | 8 (≈ 20.2 µM) |  |  |
| 13600 | 1000 | 1000 | O=C(O)[C@H]1/C(=C/CO)O[C@@H]2CC(=O)N21 [CLAVULANIC ACID] |  |  |  |  |  |  |  |  | 27000 | 20 |
|  |  |  | C[C@@H](O)[C@H]1C(=O)N2C(C(=O)O)=C(SCCNC=N)C[C@H]12 [IMIPENEM ANHYDROUS] |  |  |  |  |  |  |  | 0.25 (≈ 0.835 µM) |  |  |
|  |  |  | CCN1CCN(C(=O)N[C@@H](C(=O)N[C@@H]2C(=O)N3[C@@H]2SC(C)(C)[C@@H]3C(=O)O)c2ccccc2)C(=O)C1=O [PIPERACILLIN] | 2 (≈ 3.86 µM) | 2050 (≈ 3960 µM) | 512 (≈ 989 µM) | 2050 (≈ 3960 µM) | > 2050 | 2 (≈ 3.86 µM) | 2050 (≈ 3960 µM) | > 2050 |  |  |
|  |  |  | C[C@]1(Cn2ccnn2)[C@H](C(=O)O)N2C(=O)C[C@H]2S1(=O)=O [TAZOBACTAM] |  |  |  |  |  |  |  |  | 1800 | 130 |
|  |  |  | CC1(C)S[C@@H]2[C@H](NC(=O)[C@H](C(=O)O)c3ccsc3)C(=O)N2[C@H]1C(=O)O [TICARCILLIN] | 2 (≈ 5.2 µM) | > 2050 | > 2050 | > 2050 | > 2050 | 2 (≈ 5.2 µM) | > 2050 | > 2050 |  |  |
